Literature values as cited in US7799547B2, “Purified polypeptides from Staphylococcus aureus” (Affinium Pharmaceuticals, Inc., priority 2003, dated 2010).

Assays:
[1] = tested on: MRSA strain WCUH29; settings: rat, oral administration at 50 mg/kg
[2] = tested on: panel of clinical isolates of S. aureus; settings: clinical isolates of S. aureus resistant to different classes of antibiotics
[3] = target: E. coli FabI (Escherichia coli, UniProt P0AEK4)
[4] = target: S. aureus FabI (Staphylococcus aureus, UniProt Q6GI75)
Chain of S. aureus FabI (Q6GI75 whole entry): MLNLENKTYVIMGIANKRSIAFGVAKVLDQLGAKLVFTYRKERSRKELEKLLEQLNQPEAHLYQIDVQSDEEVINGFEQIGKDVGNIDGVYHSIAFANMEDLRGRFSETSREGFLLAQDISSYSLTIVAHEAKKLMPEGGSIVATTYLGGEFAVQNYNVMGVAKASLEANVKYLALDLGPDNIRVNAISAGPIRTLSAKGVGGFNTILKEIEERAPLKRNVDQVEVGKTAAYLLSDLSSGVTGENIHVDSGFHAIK

Chain of E. coli FabI (P0AEK4 whole entry): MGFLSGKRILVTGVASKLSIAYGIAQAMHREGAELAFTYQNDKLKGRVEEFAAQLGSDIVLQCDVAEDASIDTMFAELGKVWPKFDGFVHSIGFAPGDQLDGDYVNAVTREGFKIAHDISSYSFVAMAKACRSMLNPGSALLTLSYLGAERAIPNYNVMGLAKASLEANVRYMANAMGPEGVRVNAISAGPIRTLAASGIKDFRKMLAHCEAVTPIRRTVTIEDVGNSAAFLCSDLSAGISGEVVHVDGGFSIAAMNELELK

Question: With `Cc1[nH]c2ccccc2c1CN(C)C(=O)/C=C/c1cnc2c(c1)CCC(=O)N2` [API-1135] as the compound, how does the “Reduction in bacterial counts relative to untreated controls” value [1] read?
Answer: 3.5 log

Question: And the “MIC90 fold lower than those of the commercial antibiotics tested” value [2]?
Answer: > 500 fold

Question: For `Oc1cc(Cl)ccc1Oc1ccc(Cl)cc1Cl` [triclosan], which “Inhibition of E. coli FabI” value [3] is on record?
Answer: inhibited

Question: What about the “Inhibition of S. aureus FabI” value [4] of the same compound?
Answer: inhibited

Question: What does the source list for `Oc1c(Cl)cc(Cl)c(Cl)c1Cc1c(O)c(Cl)cc(Cl)c1Cl` [hexachlorophene]?
Answer: Inhibition of E. coli FabI [3]: inhibited; Inhibition of S. aureus FabI [4]: inhibited
